Numbering of substitutions follows the chain as printed. Read-outs that look alike come from different tables or passages of the source.
Tests used:
LNCaP cells = assay: Cell growth inhibition (MTT colorimetric assay), LNCaP; type: cell-based, human; conditions: for GI50: LNCaP (mutant AR), MTT, means of three experiments, called IC50, read-out: Cytotoxicity GI50 (nM) LNCaP
Text: (§1) Lead optimization of BTB01434 and further biological studies: BTB01434 (Maybridge) was used as a lead molecule to synthesize new molecules. Although this compound was not as potent as some of the others (cf. Table 4), it was chosen for its ease of modification. New compounds (6-23) were developed using the diaryl sulfonamide compound BTB01434 (FIG. 6) as a scaffold. […] Including new BTB01434 analogs, including diaryl sulfonamide analogs bearing various substituents on the phenyl rings (series A), aryl amide analogs (series B), and amine analogs (series C). These new compounds were evaluated for cell growth inhibition in two human prostate cancer cell lines, (LNCaP and PC-3) by MTT assay. Based on the structures and anti-prostate cancer activities of the new compounds, a structure-activity relationship (SAR) was formulated.
Androgen-dependent LNCaP cells were obtained from American Type Culture Collection (Rockville, Md., USA). Cells were maintained in RPMI 1640 medium supplemented with 10% fetal bovine serum (Atlanta Biologicals, Lawrenceville, Ga., USA) and 1% penicillin/streptomycin. Cells were grown as a monolayer in T75 or T150 tissue culture flasks in a humidified incubator (5% CO2, 95% air) at 37° C.
(§2) LNCaP cells were seeded in 24 well plates (Corning Costar) at a density of 2×10^4 cells per well per 1 mL of medium. Cell were allowed to adhere to the plate for 24 hours and then treated with different concentrations of ARDAs dissolved in DMSO. Cells were treated for five days with renewal of ARDA and media on day 3. On the fifth day, medium was renewed and 100 μL of MTT (3-(4,5-dimethylthiazol-2-yl)-2,5-diphenyl-2H-tetrazolium bromide from Sigma) solution (0.5 mg MTT/mL of medium) was added to the medium such that the ratio of MTT:medium was 1:10. The cells were incubated with MTT for 2 hours. The medium was then aspirated and 500 μL of DMSO was added to solubilize the violet MTT-formazan product. The absorbance at 560 nm was measured by spectrophotometry (Victor 1420 multilabel counted, Wallac). For each concentration of ARDA there were triplicate wells in each independent experiment. IC50 values were calculated by nonlinear regression analysis using GraphPad Prism software.

PC-3 cells = assay: Cell growth inhibition (MTT assay), PC-3; type: cell-based, human; conditions: Homo sapiens, PC-3 (AR null), means of three experiments, called IC50, read-out: Cytotoxicity GI50 (nM) PC-3
Text: as §1
Inhibition of prostate cancer cell proliferation and SAR: The exemplary compounds were then tested for their ability to inhibit cell viability in both the LNCaP (mutant AR) and PC-3 (AR null) cell lines (Table 5).
as §2

wild-type AR = target: T1, wild-type AR (Homo sapiens, UniProt P10275); assay: Competitive androgen receptor binding with [3H]-R1881 in PC-3-AR cells; conditions: PC-3-AR cells
T1 construct: expressed in transfected cells; host or cells: PC-3 (stably transfected, PC-3-AR)
T1 sequence (P10275 1-920): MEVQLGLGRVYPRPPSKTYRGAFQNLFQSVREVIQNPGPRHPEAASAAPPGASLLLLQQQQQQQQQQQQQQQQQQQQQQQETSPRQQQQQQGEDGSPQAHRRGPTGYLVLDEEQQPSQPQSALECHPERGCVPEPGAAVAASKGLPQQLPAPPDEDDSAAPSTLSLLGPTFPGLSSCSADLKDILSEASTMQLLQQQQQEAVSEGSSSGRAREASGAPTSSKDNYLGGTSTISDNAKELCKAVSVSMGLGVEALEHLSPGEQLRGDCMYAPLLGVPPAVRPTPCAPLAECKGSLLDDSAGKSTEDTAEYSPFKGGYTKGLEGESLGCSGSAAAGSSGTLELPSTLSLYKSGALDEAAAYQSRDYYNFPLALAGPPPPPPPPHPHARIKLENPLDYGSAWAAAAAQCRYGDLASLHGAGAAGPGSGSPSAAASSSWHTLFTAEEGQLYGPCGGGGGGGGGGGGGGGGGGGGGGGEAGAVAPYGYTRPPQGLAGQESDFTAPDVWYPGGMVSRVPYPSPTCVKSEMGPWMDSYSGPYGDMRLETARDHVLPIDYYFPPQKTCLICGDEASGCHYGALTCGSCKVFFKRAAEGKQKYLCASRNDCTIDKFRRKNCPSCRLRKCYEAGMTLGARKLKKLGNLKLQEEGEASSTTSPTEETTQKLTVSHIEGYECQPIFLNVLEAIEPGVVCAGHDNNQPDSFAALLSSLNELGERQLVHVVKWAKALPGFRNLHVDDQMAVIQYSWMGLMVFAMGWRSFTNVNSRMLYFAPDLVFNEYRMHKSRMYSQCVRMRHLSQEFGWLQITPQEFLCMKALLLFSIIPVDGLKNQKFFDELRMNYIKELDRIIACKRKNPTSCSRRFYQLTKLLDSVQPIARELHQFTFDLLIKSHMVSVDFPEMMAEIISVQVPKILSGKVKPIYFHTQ
Protocol: (§3) In both cell lines, compounds 9 and 11 were able to effectively compete with labeled R1881 in a dose-dependent fashion (FIG. 11). In PC-3-AR cells compound II reduced [^3H]-R1881 binding by 65% and 80% at 10 μM and 20 μM, respectively. […] Compound 9 reduced [^3H]-R1881 binding by 50% and 65% at 10 μM and 20 μM, respectively, and was equipotent in both cell lines.
(§4) These assays were performed as previously described.^10

mutated AR = target: T2, mutated AR (Homo sapiens, UniProt P10275, T878A); assay: Competitive androgen receptor binding with [3H]-R1881 in LNCaP cells
T2 construct: we utilized the LNCaP cell line which contains a mutant AR; host or cells: LNCaP
T2 sequence (P10275 1-920 T878A): T1 sequence (P10275 1-920) with T878A
Protocol: as §3, §4

[1] = tested on: AR-mediated transcription (LNCaP-AR); assay: Luciferase transactivation assay in LNCaP cells transfected with ARR2-Luc; type: cell-based, human; conditions: for effect on luciferase activity, compound alone: without DHT
Protocol: FIG. 12. […] Cells in steroid-free medium were treated with vehicle, or increasing concentrations of either 9 or 11 with and without 5 nM DHT for 18 h. Cells were then assayed for luciferase activity using a know assay.^10
To determine if the compounds act as AR agonists or antagonists, androgen regulated transcriptional activation studies were performed in LNCaP cells transiently transfected with the probasin luciferase reported construct ARR2-Luc.
as §4

fold less potent than compound 8 (GI50) (LNCaP cells; LNCaP cells) | fold more potent than compound 6 (GI50) (LNCaP cells; LNCaP cells) | melting point | reduction of [3H]-R1881 binding (wild-type AR; 10 μM) | reduction of [3H]-R1881 binding (wild-type AR; 20 μM) | reduction of [3H]-R1881 binding (mutated AR; 10 μM) | reduction of [3H]-R1881 binding (mutated AR; 20 μM) | SMILES | GI50 (LNCaP cells; Homo sapiens, LNCaP) | GI50 (LNCaP cells) | GI50 (PC-3 cells) | effect on luciferase activity, compound alone ([1]; 0.1 μM) | reduction of luciferase expression in the presence of DHT ([1]; 10 μM, with 5 nM DHT) | effect on luciferase activity, compound alone ([1]; 10 μM)
5 fold | 5.6 fold | 102 °C |  |  |  |  | O=[N+]([O-])c1ccccc1NS(=O)(=O)c1ccccc1 [Compound 7, (2-Nitrophenyl)(phenylsulfonyl)amine] | 14.8 nM | 14.1 nM | 22900 nM |  |  | 
 |  |  | 50% | 65% | 50% | 65% | Cc1ccc(NS(=O)(=O)c2ccc(F)cc2)c([N+](=O)[O-])c1 [Compound 9, [(4-Fluorophenyl)sulfonyl](4-methyl-2-nitrophenyl)amine] | 2.34 nM |  | 850 nM | slight increase | 50% | did not increase
